One assay has as its target AR / CBP ternary complex (Homo sapiens, UniProt P10275+Q92793). In words: Ternary complex formation assay (sandwich ELISA, AR capture, CBP antibody detection) in VCaP cell lysates. Format: cell-based. To be noted: treated 1.5 hours, rabbit CBP or p300 antibody detection, average, read-out: Average Ternary Complex. A digest of the protocol: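 Sandwich ELISA: plates were coated with anti-AR antibody (AR441) and given lysates of VCaP cells treated 1.5 h with bifunctional compound in charcoal-stripped serum. Co-captured CBP or p300 was probed with rabbit mAbs and HRP secondary. Chemifluorescent signal (ex 570/em 585) was read at 0, 5 and 15 min.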
(ELISA stands for enzyme-linked immunosorbent assay.)

A further assay has as its system VCaP cells. The experiment in a line: VCaP growth inhibition assay (CTG). Format: cell-based. To be noted: Homo sapiens, 216 h, 30 pM R1881, 9 days. In a few lines: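 Growth was measured by CTG luminescence after a 9-day exposure of VCaP cells to compound (final 10 fM–100 nM, fivefold steps) in the presence of 30 pM final R1881, in phenol red-free DMEM/5% CSS. IC50 values were derived by nonlinear 4-parameter regression of RLU against concentration.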

Structures are written as SMILES.

AR / CBP ternary complex, sequence (P10275 whole entry): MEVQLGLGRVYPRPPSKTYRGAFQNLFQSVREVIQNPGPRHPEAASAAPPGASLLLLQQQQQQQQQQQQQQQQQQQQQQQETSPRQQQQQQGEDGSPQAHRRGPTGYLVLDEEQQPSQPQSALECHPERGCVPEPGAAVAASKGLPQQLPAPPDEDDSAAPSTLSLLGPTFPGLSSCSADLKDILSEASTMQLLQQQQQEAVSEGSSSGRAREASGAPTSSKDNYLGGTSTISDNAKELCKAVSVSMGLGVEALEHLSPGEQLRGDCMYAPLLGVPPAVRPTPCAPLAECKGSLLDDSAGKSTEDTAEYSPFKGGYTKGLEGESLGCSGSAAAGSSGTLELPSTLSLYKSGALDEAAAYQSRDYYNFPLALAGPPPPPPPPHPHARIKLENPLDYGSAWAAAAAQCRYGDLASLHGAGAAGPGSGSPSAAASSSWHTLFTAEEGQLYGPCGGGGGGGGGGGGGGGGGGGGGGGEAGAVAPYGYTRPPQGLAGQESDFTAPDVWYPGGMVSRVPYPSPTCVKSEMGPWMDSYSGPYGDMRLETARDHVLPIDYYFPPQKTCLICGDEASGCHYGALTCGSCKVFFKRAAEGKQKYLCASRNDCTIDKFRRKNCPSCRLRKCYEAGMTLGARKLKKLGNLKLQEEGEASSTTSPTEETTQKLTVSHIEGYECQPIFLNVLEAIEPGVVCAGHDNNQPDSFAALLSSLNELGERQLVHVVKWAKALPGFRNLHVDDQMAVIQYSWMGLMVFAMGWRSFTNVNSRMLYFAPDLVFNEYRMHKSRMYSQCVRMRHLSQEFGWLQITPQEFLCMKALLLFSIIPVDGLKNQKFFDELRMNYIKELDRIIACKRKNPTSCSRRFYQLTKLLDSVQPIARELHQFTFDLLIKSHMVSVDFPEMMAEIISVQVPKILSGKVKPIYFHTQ
AR / CBP ternary complex, sequence (Q92793 2-2442): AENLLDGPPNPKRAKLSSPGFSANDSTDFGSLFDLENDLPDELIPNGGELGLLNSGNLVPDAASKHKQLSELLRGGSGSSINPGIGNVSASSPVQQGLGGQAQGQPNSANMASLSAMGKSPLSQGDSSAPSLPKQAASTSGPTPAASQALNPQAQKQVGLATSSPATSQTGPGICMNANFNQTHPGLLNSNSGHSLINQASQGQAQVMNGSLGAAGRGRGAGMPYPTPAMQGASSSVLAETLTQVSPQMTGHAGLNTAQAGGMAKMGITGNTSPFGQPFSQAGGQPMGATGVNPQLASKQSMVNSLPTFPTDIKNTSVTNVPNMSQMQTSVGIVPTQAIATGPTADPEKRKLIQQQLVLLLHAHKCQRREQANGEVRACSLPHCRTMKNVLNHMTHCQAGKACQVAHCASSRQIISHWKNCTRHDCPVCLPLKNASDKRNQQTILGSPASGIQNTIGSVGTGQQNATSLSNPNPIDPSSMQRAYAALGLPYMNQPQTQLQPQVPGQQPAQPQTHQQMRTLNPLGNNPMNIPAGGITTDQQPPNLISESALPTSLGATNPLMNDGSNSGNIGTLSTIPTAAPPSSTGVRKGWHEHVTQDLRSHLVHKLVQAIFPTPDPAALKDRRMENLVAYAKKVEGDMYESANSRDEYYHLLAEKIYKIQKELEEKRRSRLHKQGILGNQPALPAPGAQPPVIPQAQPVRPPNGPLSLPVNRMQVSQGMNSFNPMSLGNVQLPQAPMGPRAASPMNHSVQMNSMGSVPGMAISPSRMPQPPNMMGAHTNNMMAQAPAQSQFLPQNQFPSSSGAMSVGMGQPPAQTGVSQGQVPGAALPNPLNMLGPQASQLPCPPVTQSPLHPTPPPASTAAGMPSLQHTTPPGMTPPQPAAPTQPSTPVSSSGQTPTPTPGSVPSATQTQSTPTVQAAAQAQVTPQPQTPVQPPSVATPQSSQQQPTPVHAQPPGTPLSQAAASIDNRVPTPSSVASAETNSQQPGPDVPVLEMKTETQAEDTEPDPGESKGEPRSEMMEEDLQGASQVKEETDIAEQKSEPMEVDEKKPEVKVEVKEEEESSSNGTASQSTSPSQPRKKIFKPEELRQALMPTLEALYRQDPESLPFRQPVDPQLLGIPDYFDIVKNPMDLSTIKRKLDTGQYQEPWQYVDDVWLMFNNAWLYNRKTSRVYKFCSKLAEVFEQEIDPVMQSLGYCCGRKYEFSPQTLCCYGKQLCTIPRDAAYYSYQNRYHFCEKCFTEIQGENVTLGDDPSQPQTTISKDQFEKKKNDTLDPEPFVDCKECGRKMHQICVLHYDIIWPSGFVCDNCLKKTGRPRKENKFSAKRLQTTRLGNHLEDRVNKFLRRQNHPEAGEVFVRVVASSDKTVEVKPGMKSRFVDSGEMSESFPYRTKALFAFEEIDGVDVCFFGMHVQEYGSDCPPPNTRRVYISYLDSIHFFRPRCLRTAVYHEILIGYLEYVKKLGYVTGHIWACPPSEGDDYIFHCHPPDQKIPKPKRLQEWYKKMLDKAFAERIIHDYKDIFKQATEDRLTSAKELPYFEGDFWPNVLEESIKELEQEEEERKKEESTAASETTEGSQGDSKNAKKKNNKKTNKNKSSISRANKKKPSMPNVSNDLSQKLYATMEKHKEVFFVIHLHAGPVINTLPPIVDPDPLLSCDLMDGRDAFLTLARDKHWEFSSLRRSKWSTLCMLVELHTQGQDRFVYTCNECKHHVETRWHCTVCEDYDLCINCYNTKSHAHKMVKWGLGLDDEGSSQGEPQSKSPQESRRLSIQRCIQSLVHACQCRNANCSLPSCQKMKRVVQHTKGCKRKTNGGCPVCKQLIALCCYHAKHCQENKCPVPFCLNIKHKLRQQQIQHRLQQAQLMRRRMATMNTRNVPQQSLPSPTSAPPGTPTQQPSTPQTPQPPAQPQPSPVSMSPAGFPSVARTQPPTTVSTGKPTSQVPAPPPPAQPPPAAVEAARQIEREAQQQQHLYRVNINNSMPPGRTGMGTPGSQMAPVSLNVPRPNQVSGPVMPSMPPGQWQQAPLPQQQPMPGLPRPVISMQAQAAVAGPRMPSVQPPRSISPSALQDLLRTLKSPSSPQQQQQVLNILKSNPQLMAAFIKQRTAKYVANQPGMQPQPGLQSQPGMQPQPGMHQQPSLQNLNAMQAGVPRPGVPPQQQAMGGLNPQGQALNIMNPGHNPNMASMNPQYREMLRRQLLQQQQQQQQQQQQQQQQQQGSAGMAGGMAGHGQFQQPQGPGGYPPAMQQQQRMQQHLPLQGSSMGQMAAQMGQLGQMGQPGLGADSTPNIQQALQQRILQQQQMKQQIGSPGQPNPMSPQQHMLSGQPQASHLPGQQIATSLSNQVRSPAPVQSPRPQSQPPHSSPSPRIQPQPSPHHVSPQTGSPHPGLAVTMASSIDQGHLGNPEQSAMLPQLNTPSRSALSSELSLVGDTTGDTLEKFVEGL

As usually defined, the IC50 is the concentration that inhibits the measured activity by half. Read a low IC50 as higher potency. On to `CC(=O)N1CCc2c(c(N3CCCc4cc(-c5cnn(C)c5)c(C)cc43)nn2C2CCN(C[C@H]3[C@H](C)CN(c4ccc(C(=O)N[C@H]5CC[C@H](Oc6ccc(C#N)c(Cl)c6)CC5)nn4)C[C@@H]3C)CC2)C1` [Compound 281], for which the EC50 at AR / CBP ternary complex is less than 1 nM. In addition, in the assay with VCaP cells, the IC50 is not above 0.1 nM.
As to `CC(=O)N1CCc2c(c(N3CCCc4cc(-c5cnn(C)c5)c(C)cc43)nn2C2CCN(C(=O)C3CCN(c4ccc(C(=O)N[C@H]5CC[C@H](Oc6ccc(C#N)c(Cl)c6)CC5)nn4)CC3)CC2)C1` [Compound 3, 6-[4-[4-[5-acetyl-3-[7-methyl-6-(1-methylpyrazol-4-yl)-3,4-dihydro-2H-quinolin-1-yl]-6,7-dihydro-4H-pyrazolo[4,3-c]pyridin-1-yl]piperidine-1-carbonyl]-1-piperidyl]-N-[4-(3-chloro-4-cyano-phenoxy)cyclohexyl]pyridazine-3-carboxamide], the EC50 on AR / CBP ternary complex was less than 1 nM. This molecule also returned an IC50 with VCaP cells not above 0.1 nM.
Turning to `CC(=O)N1CCc2c(c(-c3cccc4cc(-c5cnn(CCC6CCN(c7ccc(C(=O)N[C@H]8CC[C@H](Oc9ccc(C#N)c(Cl)c9)CC8)nn7)CC6)c5)ncc34)nn2C2CC2)C1` [Compound 82], the EC50 at AR / CBP ternary complex is less than 1 nM. For the same molecule, the IC50 in the assay with VCaP cells lay within 0.1 to 1 nM.
Taken in the same sequence, the figures for `CC(=O)N1CCc2c(c(N3CCCc4cc(-c5cnn(C)c5)ncc43)nn2C2CCN(CC3CCN(c4ccc(C(=O)N[C@H]5CC[C@H](Oc6ccc(C#N)c(Cl)c6)CC5)nn4)CC3)CC2)C1` [Compound 66, rac-6-(4-((4-(5-acetyl-3-(6-(1-methyl-1H-pyrazol-4-yl)-3,4-dihydro-1,7-naphthyridin-1(2H)-yl)-4,5,6,7-tetrahydro-1H-pyrazolo[4,3-c]pyridin-1-yl)piperidin-1-yl)methyl)piperidin-1-yl)-N-((1r,4r)-4-(3-chloro-4-cyanophenoxy)cyclohexyl)pyridazine-3-carboxamide] were less than 1 nM and 0.1 to 1 nM.
Regarding `CC(=O)N1CCc2c(c(N3CCCc4cc(-c5cnn(C)c5)c(C)cc43)nn2C2CCN(CC3CCN(c4ccc(C(=O)N[C@H]5CC[C@H](Oc6ccc(C#N)c(C)c6)CC5)nn4)CC3(C)C)CC2)C1` (some centres unmarked) [Compound 293, 6-[4-[[4-[5-acetyl-3-[7-methyl-6-(1-methylpyrazol-4-yl)-3,4-dihydro-2H-quinolin-1-yl]-6,7-dihydro-4H-pyrazolo[4,3-c]pyridin-1-yl]-1-piperidyl]methyl]-3,3-dimethyl-1-piperidyl]-N-[4-(4-cyano-3-methyl-phenoxy)cyclohexyl]pyridazine-3-carboxamide], the EC50 on AR / CBP ternary complex was less than 1 nM. This molecule came in with an IC50 in the assay on VCaP cells not above 0.1 nM.
The corresponding values for `Cc1noc(C)c1-c1ccc2c(c1)nc(C1CCCC(=O)N1c1ccc(F)c(F)c1)n2C1CCN(CC2CCN(c3ccc(C(=O)N[C@H]4CC[C@H](Oc5ccc(C#N)c(Cl)c5)CC4)nn3)CC2)CC1` (some centres unmarked) [Compound 127, N-[4-(3-chloro-4-cyano-phenoxy)cyclohexyl]-6-[4-[[4-[2-[1-(3,4-difluorophenyl)-6-oxo-2-piperidyl]-5-(3,5-dimethylisoxazol-4-yl)benzimidazol-1-yl]-1-piperidyl]methyl]-1-piperidyl]pyridazine-3-carboxamide] are more than 100 nM and more than 100 nM.
For `Cn1c(=O)sc2ccc(N3CCCc4cc(-c5ccc(CCC6CCN(c7ccc(C(=O)N[C@H]8CC[C@H](Oc9ccc(C#N)c(Cl)c9)CC8)nn7)CC6)nc5)c(C(F)F)cc43)cc21` [Compound 56, N-[4-(3-chloro-4-cyano-phenoxy)cyclohexyl]-6-[4-[2-[5-[7-(difluoromethyl)-1-(3-methyl-2-oxo-1,3-benzothiazol-5-yl)-3,4-dihydro-2H-quinolin-6-yl]-2-pyridyl]ethyl]-1-piperidyl]pyridazine-3-carboxamide], the EC50 on AR / CBP ternary complex is 1 to 10 nM. The IC50 with VCaP cells was more than 100 nM.
Turning to `CC(=O)N1CCc2c(c(N3CCCc4cc(-c5cscn5)c(C(F)F)cc43)nn2C2CCN([C@@H]3CCCN(c4ccc(C(=O)N[C@H]5CC[C@H](Oc6ccc(C#N)c(Cl)c6)CC5)nn4)C3)CC2)C1` [Compound 261, 6-[(3R)-3-[4-[5-acetyl-3-[7-(difluoromethyl)-6-thiazol-4-yl-3,4-dihydro-2H-quinolin-1-yl]-6,7-dihydro-4H-pyrazolo[4,3-c]pyridin-1-yl]-1-piperidyl]-1-piperidyl]-N-[4-(3-chloro-4-cyano-phenoxy)cyclohexyl]pyridazine-3-carboxamide], the EC50 at AR / CBP ternary complex lay within 1 to 10 nM. In addition, in the assay on VCaP cells, the concentration for half-maximal inhibition (IC50) was 1 to 100 nM.
The corresponding values for `CC(=O)N1CCc2c(c(-c3cccc4cc(-c5cnn(C)c5)ncc34)nn2C2CN(CC3CCN(c4ccc(C(=O)N[C@H]5CC[C@H](Oc6ccc(C#N)c(Cl)c6)CC5)nn4)CC3)C2)C1` [Compound 4, 6-[4-[[3-[5-acetyl-3-[3-(1-methylpyrazol-4-yl)-8-isoquinolyl]-6,7-dihydro-4H-pyrazolo[4,3-c]pyridin-1-yl]azetidin-1-yl]methyl]-1-piperidyl]-N-[4-(3-chloro-4-cyano-phenoxy)cyclohexyl]pyridazine-3-carboxamide] are less than 1 nM and not above 0.1 nM.
The corresponding values for `CC(=O)N1CCc2c(c(N3CCCc4cc(-c5cnn(C)c5)c(C(F)F)cc43)nn2C2CCN(C(=O)CC3CCN(c4ccc(C(=O)N[C@H]5CC[C@H](Oc6ccc(C#N)c(Cl)c6)CC5)nn4)CC3)CC2)C1` [Compound 14, 6-[4-[2-[4-[5-acetyl-3-[7-(difluoromethyl)-6-(1-methylpyrazol-4-yl)-3,4-dihydro-2H-quinolin-1-yl]-6,7-dihydro-4H-pyrazolo[4,3-c]pyridin-1-yl]-1-piperidyl]-2-oxo-ethyl]-1-piperidyl]-N-[4-(3-chloro-4-cyano-phenoxy)cyclohexyl]pyridazine-3-carboxamide] are less than 1 nM and not above 0.1 nM.
Taken in the same sequence, the figures for `CC(=O)N1CCc2c(c(-c3cccc4cc(-c5cnn(C)c5)ncc34)nn2C2CCN(CC3CCN(c4ccc(C(=O)N[C@H]5CC[C@H](Oc6ccc(C#N)c(Cl)c6)CC5)cn4)CC3)CC2)C1` [Compound 161, 6-[4-[[4-[5-acetyl-3-[3-(1-methylpyrazol-4-yl)-8-isoquinolyl]-6,7-dihydro-4H-pyrazolo[4,3-c]pyridin-1-yl]-1-piperidyl]methyl]-1-piperidyl]-N-[4-(3-chloro-4-cyano-phenoxy)cyclohexyl]pyridine-3-carboxamide] were less than 1 nM and not above 0.1 nM.
Consider `Cc1cc2c(N3CCN(C)c4cc(-c5cnn(C)c5)c(C#N)cc43)cc(OCCC3CCN(c4ccc(C(=O)N[C@H]5CC[C@H](Oc6ccc(C#N)c(Cl)c6)CC5)nn4)CC3)cc2n(C)c1=O` [Compound 38, N-[4-(3-chloro-4-cyano-phenoxy)cyclohexyl]-6-[4-[2-[[5-[7-cyano-4-methyl-6-(1-methylpyrazol-4-yl)-2,3-dihydroquinoxalin-1-yl]-1,3-dimethyl-2-oxo-7-quinolyl]oxy]ethyl]-1-piperidyl]pyridazine-3-carboxamide], for which the EC50 on AR / CBP ternary complex is more than 100 nM. Further, the IC50 in the assay on VCaP cells lay in the range of 0.1 to 1 nM.
As to `CC(=O)N1CCc2c(c(N3CCCc4cc(-c5cnn(C)c5)c(C(F)F)cc43)nn2C2CCN(CC3CC4CC3CN4c3ccc(C(=O)N[C@H]4CC[C@H](Oc5ccc(C#N)c(Cl)c5)CC4)nn3)CC2)C1` (some centres unmarked) [Compound 169, 6-[5-[[4-[5-acetyl-3-[7-(difluoromethyl)-6-(1-methylpyrazol-4-yl)-3,4-dihydro-2H-quinolin-1-yl]-6,7-dihydro-4H-pyrazolo[4,3-c]pyridin-1-yl]-1-piperidyl]methyl]-2-azabicyclo [2.2.1]heptan-2-yl]-N-[4-(3-chloro-4-cyano-phenoxy)cyclohexyl]pyridazine-3-carboxamide], the EC50 at AR / CBP ternary complex was less than 1 nM. The molecule also returned an IC50 in the assay on VCaP cells not above 0.1 nM.
The corresponding values for `CC(=O)N1CCc2c(c(N3CCCc4cc(-c5ccc(CCC6CCN(c7ccc(C(=O)N[C@H]8CC[C@H](Oc9ccc(C#N)c(Cl)c9)CC8)nn7)CC6)cc5)ncc43)nn2C2CCOCC2)C1` [Compound 156, 6-[4-[2-[4-[1-(5-acetyl-1-tetrahydropyran-4-yl-6,7-dihydro-4H-pyrazolo[4,3-c]pyridin-3-yl)-3,4-dihydro-2H-1,7-naphthyridin-6-yl]phenyl]ethyl]-1-piperidyl]-N-[4-(3-chloro-4-cyano-phenoxy)cyclohexyl]pyridazine-3-carboxamide] are 1 to 10 nM and 1 to 100 nM.
Take `CC(=O)N1CCc2c(c(-c3cccc4cc(-c5cnn(CCC6CCN(c7ccc(C(=O)N[C@H]8CC[C@H](Oc9ccc(C#N)c(Cl)c9)CC8)nn7)CC6)c5)ncc34)nn2C2COC2)C1` [Compound 84, 6-[4-[2-[4-[8-[5-acetyl-1-(oxetan-3-yl)-6,7-dihydro-4H-pyrazolo[4,3-c]pyridin-3-yl]-3-isoquinolyl]pyrazol-1-yl]ethyl]-1-piperidyl]-N-[4-(3-chloro-4-cyano-phenoxy)cyclohexyl]pyridazine-3-carboxamide]: on AR / CBP ternary complex, the EC50 is less than 1 nM. Besides, the IC50 in the assay with VCaP cells lay within 0.1 to 1 nM.
Take `CC(=O)N1CCc2c(c(N3CCCc4cc(-c5cnn(C)c5)c(C(F)F)cc43)nn2C2CCN(CC3CCN(c4ccc(C(=O)N[C@H]5CC[C@H](Oc6ccc(C#N)c(Cl)c6)CC5)nn4)CC34CC4)CC2)C1` (some centres unmarked) [Compound 231, 6-[8-[[4-[5-acetyl-3-[7-(difluoromethyl)-6-(1-methylpyrazol-4-yl)-3,4-dihydro-2H-quinolin-1-yl]-6,7-dihydro-4H-pyrazolo[4,3-c]pyridin-1-yl]-1-piperidyl]methyl]-5-azaspiro[2.5]octan-5-yl]-N-[4-(3-chloro-4-cyano-phenoxy)cyclohexyl]pyridazine-3-carboxamide]: the EC50 on AR / CBP ternary complex was less than 1 nM. Further, the half-maximal inhibitory concentration (IC50) with VCaP cells was not above 0.1 nM.

The record behind these values is US20250136578A1 (Kolm Therapeutics Inc., priority 2023, published 2025).
